# BigSolDB 2.1
# Conditions: in n-hexane
Structure (SMILES),solubility (mole fraction) (293.15 K),solubility (mole fraction) (298.15 K),solubility (mole fraction) (303.15 K),solubility (mole fraction) (308.15 K),solubility (mole fraction) (313.15 K)
Cc1ccc(N=C2[Se]CC3CCCN2C3)cc1Cl (stereo not given),0.000536,0.000551,0.000567,0.000581,0.000595
CC(C)c1ccc(N=C2[Se]CC3CCCN2C3)cc1 (stereo not given),0.000481,0.00056,0.000643,0.000725,0.000819
Fc1ccc(N=C2[Se]CC3CCCN2C3)cc1 (stereo not given),0.00115,0.00121,0.00128,0.00134,0.00143
